Test results taken from patent US8809336B2, “Ortho-condensed pyridine and pyrimidine derivatives (e.g., purines) as protein kinases inhibitors” (Astex Therapeutics Limited, priority 2004, dated 2014).
Like-named read-outs stand apart in the source and are kept apart here.

How the values were obtained:
[1] = biological target: T1, PKA catalytic domain (Homo sapiens, UniProt P17612); test: Measurement of PKA kinase inhibitory activity (IC50), 33P-ATP filter plate assay; assay type: biochemical
T1 construct: using the PKA catalytic domain from Upstate Biotechnology (#14-440); purchased Upstate Biotechnology 14-440
Experimental: A final concentration of 1 nM enzyme is used in a buffer that includes 20 mM MOPS pH 7.2, 40 μM ATP/γ^33P-ATP and […] substrate. Compounds are added in dimethylsulphoxide (DMSO) solution to a final DMSO concentration of 2.5%. The reaction is allowed to proceed for 20 minutes before addition of excess orthophosphoric acid to quench activity. Unincorporated γ^33P-ATP is then separated from phosphorylated proteins on a Millipore MAPH filter plate. The plates are washed, scintillant is added and the plates are then subjected to counting on a Packard Topcount.

[2] = biological target: T2, PKB-PIF fusion protein (Homo sapiens, UniProt P31751); test: Measurement of PKB kinase inhibitory activity (IC50), 33P-ATP phosphocellulose filter assay; assay type: biochemical
T2 construct: PIF (fusion partner); made in house
T2 sequence (P31751 with tags, fused parts or gaps limits assumed): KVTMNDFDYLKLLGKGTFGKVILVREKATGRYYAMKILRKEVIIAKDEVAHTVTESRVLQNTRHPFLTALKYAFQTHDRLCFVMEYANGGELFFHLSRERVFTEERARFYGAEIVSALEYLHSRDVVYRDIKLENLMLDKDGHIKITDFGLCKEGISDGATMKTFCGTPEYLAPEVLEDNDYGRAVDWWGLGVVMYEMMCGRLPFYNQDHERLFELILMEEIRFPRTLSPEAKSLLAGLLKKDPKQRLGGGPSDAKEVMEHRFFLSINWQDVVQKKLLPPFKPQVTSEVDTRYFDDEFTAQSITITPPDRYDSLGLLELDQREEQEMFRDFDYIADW
Experimental: The inhibition of protein kinase B (PKB) activity by compounds can be determined essentially as described by Andjelkovic et al. (Mol. Cell. Biol. 19, 5061-5072 (1999)) but using a fusion protein described as PKB-PIF and described in full by Yang et al (Nature Structural Biology 9, 940-944 (2002)). […] A final concentration of 0.6 nM enzyme is used in a buffer that includes 20 mM MOPS pH 7.2, 30 μM ATP/γ^33P-ATP and 25 μM substrate.
Compounds are added in DMSO solution to a final DMSO concentration of 2.5%. The reaction is allowed to proceed for 20 minutes before addition of excess orthophosphoric acid to quench activity. The reaction mixture is transferred to a phosphocellulose filter plate where the peptide binds and the unused ATP is washed away. After washing, scintillant is added and the incorporated activity measured by scintillation counting.
The % inhibition of the PKB activity is calculated and plotted in order to determine the concentration of test compound required to inhibit 50% of the PKB activity (IC50).

[3] = 1 nM enzyme, 40 μM ATP, 20 minutes, read-out: IC50, inhibition of PKA activity
[4] = 0.6 nM enzyme, 30 μM ATP, 25 μM AKTide-2T substrate, 20 minutes, read-out: IC50, inhibition of PKB activity

Compound | IC50 [1, 3] [µM] | IC50 [2, 4] [µM] | IC50 [1] [µM] | IC50 [2] [µM]
NC1CCN(c2ccnc3[nH]ccc23)CC1 [Example 13, 1-(1H-Pyrrolo[2,3-b]pyridin-4-yl)-piperidin-4-ylamine] | < 10 | < 10 | – | –
NCC1(c2ccc(Cl)cc2)CCN(c2ncnc3[nH]ccc23)CC1 [Example 14, C-[4-(4-Chloro-phenyl)-1-(7H-pyrrolo[2,3-d]pyrimidin-4-yl)-piperidin-4-yl]-methylamine] | < 10 | < 10 | – | –
NC1(Cc2ccc(Cl)cc2)CCN(c2ncnc3[nH]cnc23)CC1 [Example 18, 4-(4-Chlorobenzyl)-1-(9H-purin-6-yl)piperidin-4-yl amine] | < 10 | < 10 | – | –
NCC1(Cc2ccc(Cl)cc2)CCN(c2ncnc3[nH]ccc23)CC1 [Example 19, C-[4-(4-Chlorobenzyl)-1-(7H-pyrrolo[2,3-d]pyrimidin-4-yl)piperidin-4-yl]methylamine] | < 10 | < 10 | – | –
NCC1(c2ccc(Cl)cc2)CCN(c2ncnc3[nH]c(=O)[nH]c23)CC1 [Example 20, 6-[4-Aminomethyl-4-(4-chlorophenyl)piperidin-1-yl]-7,9-dihydropurin-8-one] | < 10 | < 10 | – | –
NC1(c2ccc(Cl)cc2)CCN(c2ncnc3[nH]ccc23)CC1 [Example 25, 4-(4-Chlorophenyl)-1-(7H-pyrrolo[2,3-d]pyrimidin-4-yl)piperidin-4-ylamine] | – | – | < 10 | < 10
NCC1(c2cccc(Cl)c2)CCN(c2ncnc3[nH]ccc23)CC1 [Example 26, C-[4-(3-Chlorophenyl)-1-(7H-pyrrolo[2,3-d]pyrimidin-4-yl)piperidin-4-yl]methylamine] | < 10 | < 10 | – | –
NCC1(c2ccc(Cl)c(Cl)c2)CCN(c2ncnc3[nH]ccc23)CC1 [Example 28, C-[4-(3,4-Dichlorophenyl)-1-(7H-pyrrolo[2,3-d]pyrimidin-4-yl)piperidin-4-yl]methylamine] | < 10 | < 10 | – | –
NCC1(c2ccc(OC(F)(F)F)cc2)CCN(c2ncnc3[nH]cnc23)CC1 [Example 31, C-[1-(9H-Purin-6-yl)-4-(4-trifluoromethoxyphenyl)piperidin-4-yl]methylamine] | < 10 | < 10 | – | –
NCC1(c2ccc(C(F)(F)F)cc2)CCN(c2ncnc3[nH]ccc23)CC1 [Example 32, C-[1-(7H-Pyrrolo[2,3-d]pyrimidin-4-yl)-4-(4-trifluoromethylphenyl)piperidin-4-yl]methylamine] | < 10 | < 10 | – | –
COc1ccc(C2(CN)CCN(c3ncnc4[nH]ccc34)CC2)cc1 [Example 38, C-[4-(4-Methoxyphenyl)-1-(7H-pyrrolo[2,3-d]pyrimidin-4-yl)piperidin-4-yl]methylamine] | < 10 | < 10 | – | –
NCC1(c2ccc(OCc3ccccc3)cc2)CCN(c2ncnc3[nH]ccc23)CC1 [Example 40, C-[4-(4-Benzyloxyphenyl)-1-(7H-pyrrolo[2,3-d]pyrimidin-4-yl)piperidin-4-yl]methylamine] | < 10 | < 10 | – | –
CNCC1(c2ccc(Cl)cc2)CCN(c2ncnc3[nH]ccc23)CC1 [Example 42, [4-(4-Chloro-phenyl)-1-(7H-pyrrolo[2,3-d]pyrimidin-4-yl)-piperidin-4-ylmethyl]-methyl-amine] | – | – | < 10 | < 10
CN(C)C1(Cc2ccc(Cl)cc2)CCN(c2ncnc3[nH]ccc23)CC1 [Example 44, [4-(4-Chlorobenzyl)-1-(7H-pyrrolo[2,3-d]pyrimidin-4-yl)-piperidin-4-yl]-dimethylamine] | < 10 | < 10 | – | –
